Experimental findings from US11319303B2 (WIGEN BIOMEDICINE TECHNOLOGY (SHANGHAI) CO., LTD., priority 2017, dated 2022) are described below.

The assay concerns the target LC3B (Homo sapiens, UniProt Q9GZQ8). Put plainly: Fluorescence Polarization (FP) Assay: displacement of FITC-labeled peptide from GST-LC3B. It counts as binding. Particulars: Fluorescence Polarization assay; GST-LC3B 180 nM, FITC-labeled peptide 18 nM, 25° C.; read-out: IC50. On the procedure:
The compounds of the present invention for regulating the autophagy-related protein LC3B were tested by Fluorescence Polarization (FP) Assay.
Fluorescence Polarization (FP) Assay Test
For orientation: Fluorescence polarisation rises when a labelled molecule tumbles more slowly, as on binding a larger partner.
On to `O=C1CC(c2ccc(S(=O)(=O)N3CCOCC3)cc2)CC(=O)C1=CNCCN1CCN(CCO)CC1` (stereo not drawn) [Compound 92], for which the IC50 – broadly, the concentration that gives 50% inhibition – fell in the range of 15 to 100 µM.

For the compound `O=C1CC(c2cccc3[nH]ncc23)CC(=O)C1=CNCCN1CCN(CCO)CC1` (stereo not drawn) [Compound 93, 2-(((2-(4-(2-hydroxyethyl)piperazin-1-yl)ethyl)amino)methylene)-5-(1H-indazol-4-yl)cyclohexane-1,3-dione], the IC50 was 3 to 15 µM.

For the compound `O=C1CC(C(F)(F)F)CC(=O)C1=CNCCN1CCN(CCO)CC1` (stereo not drawn) [Compound 94, 2-(((2-(4-(2-hydroxyethyl)piperazin-1-yl)ethyl)amino)methylene)-5-(trifluoromethyl) cyclohexane-1,3-dione], the 50% inhibitory concentration (IC50) lay in the range of 15 to 100 µM.

Turning to `O=C1CC(c2ccccc2)OC(=O)C1=CNCCN1CCN(CCO)CC1` (stereo not drawn) [Compound 95, 3-(((2-(4-(2-hydroxyethyl)piperazin-1-yl)ethyl)amino)methylene)-6-phenyldihydro-2H-pyran-2,4(3H)-dione], the 50% inhibitory concentration (IC50) is 15 to 100 µM.

`O=C1CC(c2ccccc2)NC(=O)C1=CNCCN1CCN(CCO)CC1` (stereo not drawn) [Compound 96, 3-(((2-(4-(2-hydroxyethyl)piperazin-1-yl)ethyl)amino)methylene)-6-phenylpiperidine-2,4-dione]: the IC50 lay within 100 to 1000 µM.

For `O=C1CN(c2ccccc2)CC(=O)C1=CNCCN1CCN(CCO)CC1` [Compound 97, 4-(((2-(4-(2-hydroxyethyl)piperazin-1-yl)ethyl)amino)methylene)-1-phenylpiperidine-3,5-dione], the half-maximal inhibitory concentration (IC50) was in the range of 15 to 100 µM.

As for `O=C1CCN(c2ccccc2)C(=O)/C1=C\NCCN1CCN(CCO)CC1` [Compound 99, 3-(((2-(4-(2-hydroxyethyl)piperazin-1-yl)ethyl)amino)methylene)-1-phenylpiperidine-2,4-dione], the half-maximal inhibitory concentration (IC50) was 100 to 1000 µM.

On to `O=C1CCC(c2ccc(F)cc2)C(=O)C1=CNCCN1CCN(CCO)CC1` (stereo not drawn) [Compound 100, 4-(4-fluorophenyl)-2-(((2-(4-(2-hydroxyethyl)piperazin-1-yl)ethyl)amino)methylene)cyclohexane-1,3-dione], for which the 50% inhibitory concentration (IC50) is 15 to 100 µM.

Turning to `O=C1C(=CNCCN2CCN(CCO)CC2)C(=O)C(c2ccccc2)CC1Cc1ccccc1` (stereo not drawn) [Compound 101, 4-benzyl-2-(((2-(4-(2-hydroxyethyl)piperazin-1-yl)ethyl)amino)methylene)-6-phenylcyclohexane-1,3-dione], the IC50 was in the range of 15 to 100 µM.

For the compound `COc1ccc(CN2CC(=O)C(=CNCCN3CCN(CCO)CC3)C(=O)C2)cc1` [Compound 102, 4-(((2-(4-(2-hydroxyethyl)piperazin-1-yl)ethyl)amino)methylene)-1-(4-methoxybenzyl)piperidine-3,5-dione], the IC50 fell in the range of 15 to 100 µM.

As for `O=C1CN(Cc2ccccc2)CC(=O)C1=CNCCN1CCN(CCO)CC1` [Compound 103, 1-benzyl-4-(((2-(4-(2-hydroxyethyl)piperazin-1-yl)ethyl)amino)methylene)-piperidine-3,5-dione], the concentration for half-maximal inhibition (IC50) was in the range of 15 to 100 µM.

For `O=C1CN(C(=O)c2ccccc2)CC(=O)C1=CNCCN1CCN(CCO)CC1` [Compound 104, 1-benzoyl-4-(((2-(4-(2-hydroxyethyl)piperazin-1-yl)ethyl)amino)methylene)-piperidine-3,5-dione], the 50% inhibitory concentration (IC50) fell in the range of 15 to 100 µM.

`O=C1CC(C(=O)N2CCOCC2)CC(=O)C1=CNCCN1CCN(CCO)CC1` (stereo not drawn) [Compound 106, 2-(((2-(4-(2-hydroxyethyl)piperazin-1-yl)ethyl)amino)methylene)-5-(morpholine-4-carbonyl)cyclohexane-1,3-dione]: the IC50 was in the range of 100 to 1000 µM.

With `O=C1Nc2ccccc2C(=O)/C1=C/NCCN1CCN(CCO)CC1` [Compound 107, 3-(((2-(4-(2-hydroxyethyl)piperazin-1-yl)ethyl)amino)methylene)quinoline-2,4(1H,3H)-dione], the concentration for half-maximal inhibition (IC50) was 15 to 100 µM.

Consider `CC(NCCN1CCN(CCO)CC1)=C1C(=O)CC(c2ccccc2)CC1=O` (stereo not drawn) [Compound 108, 2-(1-((2-(4-(2-hydroxyethyl)piperazin-1-yl)ethyl)amino)ethylidene)-5-phenylcyclohexane-1,3-dione], for which the IC50 lay within 100 to 1000 µM.

For the compound `O=C1CC(c2ccccc2)CC(=O)C1=C(NCCN1CCN(CCO)CC1)c1ccccc1` (stereo not drawn) [Compound 110, 2-(((2-(4-(2-hydroxyethyl)piperazin-1-yl)ethyl)amino)(phenyl)methylene)-5-phenylcyclohexane-1,3-dione], the IC50 is 100 to 1000 µM.

Regarding `CC(=O)OCC(=O)C1=C(O)CC(c2ccccc2)CC1=O` (stereo not drawn) [Compound 111, 2-(5-hydroxy-3-oxo-1,2,3,6-tetrahydro-[1,1′ -biphenyl]-4-yl)-2-oxoethyl acetate], the concentration for half-maximal inhibition (IC50) lay in the range of 100 to 1000 µM.

In the case of `O=C(CO)C1C(=O)CC(c2ccccc2)CC1=O` (stereo not drawn) [Compound 112, 2-(hydroacetyl)-5-pheyl-cyclohexane-1,3-dione], the IC50 is 15 to 100 µM.

`O=C1CC2c3ccccc3CCC2C(=O)/C1=C\NCCN1CCN(CCO)CC1` (stereo not drawn) [Compound 113, 2-(((2-(4-(2-hydroxyethyl)piperazin-1-yl)ethyl)amino)methylene)-4a,9,10,10a-tetrahydrophenanthrene-1,3(2H,4H)-dione]: the IC50 lay within 100 to 1000 µM.

In the case of `O=C1CC([C@H]2O[C@@H](n3cnc4c(N5CCOCC5)ncnc43)[C@H](O)[C@@H]2O)CC(=O)C1=CNCCN1CCN(CCO)CC1` (stereo partly drawn) [Compound 114, 5-((2R, 3S, 4R, 5R)-3,4-dihydroxy-5-(6-morpholino-9H-purin-9-yl)tetrahydrofuran-2-yl)-2-(((2-(4-(2-hydroxyethyl)piperazin-1-yl)ethyl)amino)methylene)cyclohexane-1,3-dione], the half-inhibitory concentration (IC50) lay within 100 to 1000 µM.

As to `O=C1CC(Cc2ccccc2)C(=O)/C1=C/NCCN1CCN(CCO)CC1` (stereo not drawn) [Compound 115, 4-benzyl-2-(((2-(4-(2-hydroxyethyl)piperazin-1-yl)ethyl)amino)-methylene)cyclopentane-1,3-dione], the concentration for half-maximal inhibition (IC50) was 3 to 15 µM.

Turning to `CC1C(=O)C(=CNCCN2CCN(CCO)CC2)C(=O)CC1c1ccccc1` (stereo not drawn) [Compound 116, 2-(((2-(4-(2-hydroxyethyl)piperazin-1-yl)ethyl)amino)methylene)-4-methyl-5-phenylcyclohexane-1,3-dione], the IC50 is below 3 µM.

As to `CN(C)CCNC=C1C(=O)CC(c2ccccc2)CC1=O` (stereo not drawn) [Compound 119, 2-(((2-(dimethylamino)ethyl)amino)methylene)-5-phenylcyclo-hexane-1,3-dione], the IC50 is below 3 µM.

On to `CCN(CC)CCNC=C1C(=O)CC(c2ccccc2)CC1=O` (stereo not drawn) [Compound 120, 2-(((2-(diethylamino)ethyl)amino)methylene)-5-phenylcyclo-hexane-1,3-dione], for which the IC50 was below 3 µM.

On to `C[C@H](NC=C1C(=O)CC(c2ccccc2)CC1=O)C(=O)O` (stereo partly drawn) [Compound 121, ((2,6-dioxo-4-phenylcyclo-hexylidene)methyl)-L-alanine], for which the IC50 fell in the range of 15 to 100 µM.

Regarding `C[C@H](NC=C1C(=O)CC(c2ccccc2)CC1=O)C(=O)OCc1ccccc1` (stereo partly drawn) [Compound 122, benzyl ((2,6-dioxo-4-phenylcyclo-hexylidene)methyl)-L-alaninate], the IC50 was 100 to 1000 µM.

As for `O=C1CC(c2ccccc2)CC(=O)C1=CN[C@@H](Cc1ccccc1)C(=O)O` (stereo partly drawn) [Compound 123, ((2,6-dioxo-4-phenylcyclo-hexylidene)methyl) phenylalanine], the half-inhibitory concentration (IC50) lay in the range of 100 to 1000 µM.

On to `CCOC(=O)[C@H](Cc1ccccc1)NC=C1C(=O)CC(c2ccccc2)CC1=O` (stereo partly drawn) [Compound 124, (l)-ethyl ((2,6-dioxo-4-phenylcyclo-hexylidene)methyl) phenylalaninate], for which the IC50 fell in the range of 100 to 1000 µM.

For `O=C1CC(c2ccccc2)CC(=O)C1=CN[C@@H](Cc1ccccc1)C(=O)OCc1ccccc1` (stereo partly drawn) [Compound 125, benzyl ((2,6-dioxo-4-phenylcyclo-hexylidene)methyl)-L-phenylalaninate], the IC50 is 100 to 1000 µM.

As to `O=C1CC(c2ccccc2)CC(=O)C1=CN[C@@H](Cc1c[nH]cn1)C(=O)O` (stereo partly drawn) [Compound 126, ((2,6-dioxo-4-phenylcyclo-hexylidene)methyl)-L-histidine], the IC50 lay within 15 to 100 µM.

In the case of `COC(=O)C(CCSC)NC=C1C(=O)CC(c2ccccc2)CC1=O` (stereo not drawn) [Compound 127, methyl ((2,6-dioxo-4-phenylcyclo-hexylidene)methyl) methioninate], the IC50 was 15 to 100 µM.

For the compound `COCCNC=C1C(=O)CC(c2ccccc2)CC1=O` (stereo not drawn) [Compound 128, 2-(((2-methoxyethyl)amino)methylene)-5-phenylcyclohexane-1,3-dione], the IC50 is 100 to 1000 µM.

`COC(=O)CNC=C1C(=O)CC(c2ccccc2)CC1=O` (stereo not drawn) [Compound 129, methyl ((2,6-dioxo-4-phenylcyclo-hexylidene)methyl)glycinate]: the IC50 lay in the range of 15 to 100 µM.

For the compound `O=C(O)CCCNC=C1C(=O)CC(c2ccccc2)CC1=O` (stereo not drawn) [Compound 131, 4-(((2,6-dioxo-4-phenylcyclo-hexylidene)methyl)amino) butanoic acid], the IC50 is 15 to 100 µM.

For `O=C1CC(c2ccccc2)CC(=O)C1=CNCCCCO` (stereo not drawn) [Compound 132, 2-(((4-hydroxybutyl)amino)methylene)-5-phenylcyclohexane-1,3-dione], the IC50 fell in the range of 100 to 1000 µM.

As to `O=C1CC(c2ccccc2)CC(=O)C1=CNCCCCl` (stereo not drawn) [Compound 133, 2-(((3-chloropropyl)amino)methylene)-5-phenylcyclohexane-1,3-dione], the IC50 was 100 to 1000 µM.

For the compound `O=C1CC(c2ccccc2)CC(=O)C1=CNCCOCCO` (stereo not drawn) [Compound 134, 2-(((2-(2-hydroxyethoxy)ethyl)amino)methylene)-5-phenylcyclohexane-1,3-dione], the IC50 was in the range of 100 to 1000 µM.

As to `O=C1CC(c2ccccc2)CC(=O)C1=CNCCc1c[nH]c2ccccc12` (stereo not drawn) [Compound 135, 2-(((2-(1H-indol-3-yl)ethyl)amino)methylene)-5-phenylcyclo-hexane-1,3-dione], the IC50 lay in the range of 100 to 1000 µM.

Regarding `O=C1CC(c2ccccc2)CC(=O)C1=CNC1CCC(O)CC1` (stereo not drawn) [Compound 136, 2-(((4-hydroxycyclohexyl)amino)methylene)-5-phenylcyclohexane-1,3-dione], the IC50 is 100 to 1000 µM.
